Laboratory results from patent publication US11360080B2, “AhR-ROR-γt complex as a biomarker and therapeutic target for autoimmune disease and IL-17A-associated disease” (NATIONAL HEALTH RESEARCH INSTITUTES, priority 2018, dated 2022).

Tests used:
[1] = system: murine primary T cells; assay: ELISA of cytokines in supernatants of murine primary T cells stimulated with anti-CD3/CD28; type: cell-based, mouse; conditions: 5 μM or 10 μM for 3 days
Protocol: Means±SD are shown, (b) ELISA of IL-17A in supernatants of human T cells. T cells were stimulated with anti-CD3/CD28 and treated with C1 (verteporfin) (1 μM or 5 μM) or C2 (1 μM or 5 μM) for 3 days. HC, healthy control; SLE, systemic lupus erythematosus; RA, rheumatoid arthritis; AS, ankylosing spondylitis; PsA, psoriatic arthritis; PSS, primary Sjögren's syndrome. Means±SD are shown. C1 denotes verteporfin; C2 denotes alexidine dihydrochloride.
We further studied whether IL-17A production is abolished by the inhibitors of GLK-induced AhR-RORγt complex in human and murine T cells. We first tested the inhibitor experiment using murine T cells stimulated with TCR signaling (anti-CD3 plus anti-CD28 antibodies). […] Next, we studied the blocking effect of IL-17 production by the treatment of C1 (verteporfin) or C2 (alexidine dihydrochloride) using human peripheral blood T cells. […] Taken together, GLK inhibitors (verteporfin and alexidine dihydrochloride) inhibit GLK-induced AhR-RORγt complex and IL-17A production in human autoimmune patient T cells, as well as the disease severity of autoimmune animal models. Thus, GLK, GLK signaling, or GLK-induced AhR-RORγt complex can be a promising therapeutic target for autoimmune diseases.

[2] = system: AhR-RORγt complex; assay: Proximity ligation assay (PLA) in peripheral blood T cells of SLE and RA patients; type: cell-based, human; conditions: 5 μM for 30 min
Protocol: (§1) (A) Luciferase activity of NF-κB-driven reporter assays in stable GLK-transfected CHO-K1 cells that were treated with or without the GLK inhibitor C1 (verteporfin) under the indicated concentration. The fold changes are presented relative to the value of vector control. (B) Recombinant proteins of GLK kinase domain plus recombinant proteins of GST-tagged kinase-dead PKCθ (K409W) were subjected to in vitro kinase assays in the presence or absence of the GLK inhibitor C1 (verteporfin). Means±SD of are shown. *, P value<0.05; **, P value<0.01 (two-tailed Student's t-test). (C) The AhR-RORγt complex was inhibited by the GLK inhibitor. […] (D) Quantification of the PLA signals of (C). […]
PLA assays were performed using the DUOLINK® In Situ Red Starter kit (Sigma) according to the manufacturer's instructions. […] After ligation and amplification reactions, the PLA signals from each pair of PLA probes in close proximity (<40 nm) were visualized as individual red dots by a fluorescence microscope (Leica DM2500) or a confocal microscope (Leica TCS SP5II). […]
T cells of Lck-GLK transgenic mice, GLK-overexpressing T cells, activated T cells or AhR+RORγt+IKKβ-overexpressing cells were used. […] After ligation and amplification reactions, the PLA signals from each pair of PLA probes in close proximity ([…]) were visualized as individual red dots by a fluorescence or a confocal microscope. […]

[3] = target: T1, AhR-RORγt complex (UniProt P35869+P51450); assay: FRET assay of HEK293T cells co-transfected with CFP-AhR, YFP-RORγt and IKKβ plasmids; type: cell-based; conditions: IKKβ
T1 construct: expressed in transfected cells; host or cells: HEK293T
Protocol: as §1
FRET signal in live cells was detected by EnVision 2104 Multilabel Plate Reader (Perkin Elmer). The reaction was excited by light passing through a 430-nm filter (with 8 nm bandwidth), and the intensity of emitted fluorescence passing through a 530-nm filter (with 8 nm bandwidth) was recorded. If the protein-protein pair is in close proximity (1-10 nm), a 530-nm signal will be detected. The FRET efficiency was calculated using the following equation: FRET efficiency=((FRET−CFP×a−YFP×b)/YFP)×100%, where FRET, CFP, and YFP correspond to the fluorescent intensities acquired through FRET, CFP, and YFP filter sets, respectively; a and b are the donor emission and acceptor excitation crosstalk ratios, respectively. […]

[4] = system: splenic T cells (Treg differentiation); assay: In vitro Treg differentiation, flow cytometry of Foxp3-producing CD4+ T cells; type: cell-based, mouse; conditions: 5 μM
Protocol: (A) Flow cytometry of IL-17A-producing CD4^+ T cells. Splenic T cells were co-treated with verteporfin (C1) (1 or 5 μM) during Th17 differentiation in vitro. (B) Flow cytometry of IL-17A-producing CD4^+ T cells. Murine in vitro differentiated Th17 cells were stimulated with PMA plus ionomycin and co-treated with verteporfin (C1) (1 or 5 μM) for 30 min. (C) Flow cytometry of Foxp3-producing […] T cells. Splenic T cells were co-treated with verteporfin (C1) (5 μM) during Treg differentiation in vitro. (D) Flow cytometry of Foxp3-producing CD4^+ T cells, which were differentiated from CD4^+ T cells of wild-type or Lck-GLK transgenic mice.

T1 sequence (P35869 11-848): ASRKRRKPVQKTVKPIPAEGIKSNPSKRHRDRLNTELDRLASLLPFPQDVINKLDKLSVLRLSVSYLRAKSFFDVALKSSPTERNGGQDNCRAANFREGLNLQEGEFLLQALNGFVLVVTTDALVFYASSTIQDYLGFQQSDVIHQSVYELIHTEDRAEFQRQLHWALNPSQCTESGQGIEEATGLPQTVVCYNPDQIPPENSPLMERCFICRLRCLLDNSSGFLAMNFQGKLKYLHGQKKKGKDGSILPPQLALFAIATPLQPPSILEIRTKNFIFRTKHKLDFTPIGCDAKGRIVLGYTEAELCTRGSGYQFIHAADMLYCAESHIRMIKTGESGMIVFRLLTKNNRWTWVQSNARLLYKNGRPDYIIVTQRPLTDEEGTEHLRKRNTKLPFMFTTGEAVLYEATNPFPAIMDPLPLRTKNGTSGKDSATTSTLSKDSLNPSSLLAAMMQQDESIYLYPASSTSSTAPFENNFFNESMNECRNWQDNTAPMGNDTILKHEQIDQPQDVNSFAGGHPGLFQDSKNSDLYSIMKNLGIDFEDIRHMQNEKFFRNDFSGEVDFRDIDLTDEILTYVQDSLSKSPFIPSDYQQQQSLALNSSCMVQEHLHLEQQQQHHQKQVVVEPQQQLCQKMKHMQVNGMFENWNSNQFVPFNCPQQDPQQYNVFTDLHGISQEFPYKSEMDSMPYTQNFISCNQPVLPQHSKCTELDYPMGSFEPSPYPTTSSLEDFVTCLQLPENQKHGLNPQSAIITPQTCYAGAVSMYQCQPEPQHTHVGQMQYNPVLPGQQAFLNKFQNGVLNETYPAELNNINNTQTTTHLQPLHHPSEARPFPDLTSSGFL
T1 sequence (P51450 1-495 isoform P51450-2 T331K): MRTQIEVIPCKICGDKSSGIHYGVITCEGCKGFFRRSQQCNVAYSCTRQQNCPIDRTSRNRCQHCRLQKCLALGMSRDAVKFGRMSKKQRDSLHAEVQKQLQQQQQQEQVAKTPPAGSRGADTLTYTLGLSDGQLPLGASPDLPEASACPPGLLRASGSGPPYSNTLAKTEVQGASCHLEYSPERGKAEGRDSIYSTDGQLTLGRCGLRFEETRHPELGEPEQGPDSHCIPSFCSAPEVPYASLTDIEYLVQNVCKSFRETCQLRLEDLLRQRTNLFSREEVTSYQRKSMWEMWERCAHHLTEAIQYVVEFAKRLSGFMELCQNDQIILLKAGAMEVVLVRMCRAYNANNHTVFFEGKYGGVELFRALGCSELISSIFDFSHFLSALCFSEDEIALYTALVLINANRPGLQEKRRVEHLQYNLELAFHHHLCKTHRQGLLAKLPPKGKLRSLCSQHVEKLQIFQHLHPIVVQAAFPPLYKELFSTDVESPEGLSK

With `C=Cc1c(C)c2cc3nc(cc4[nH]c(cc5nc(cc1[nH]2)C(C)=C5CCC(=O)O)c(CCC(=O)OC)c4C)[C@@]1(C)C3=CC=C(C(=O)OC)[C@H]1C(=O)OC` [C1, verteporfin] the “TCR-induced IFN-γ level” value [1] was “partially reduced”, the “TCR-induced IL-17A production” value [1] was “drastically abolished” and the “TCR-induced IL-17B level” value [1] was “not decreased”. The “TCR-induced IL-17E level” value [1] was “not decreased”, the “TCR-induced IL-17F level” value [1] was “not decreased” and the “TCR-induced TNF-α level” value [1] was “partially reduced”. The “AhR-RORγt complex in T cells from SLE and RA patients” value [2] was “blocked”, the “PLA signals (quantification) of AhR with RORγt or phospho-RORγt (S489)” value [2] was “inhibited” and the “FRET signals AhR-RORγt” value [3] was “inhibited”. For the same compound, the “in vitro Treg (Foxp3-expressing CD4+ T cell) differentiation” value [4] was “enhanced”.
